Structures are written as SMILES. Structures can show the parent of a compound that is named as a salt.

This data set in a line: RP, Thermo Scientific Hypersil GOLD, 1.9 µm, 40 °C, 0.4 mL/min; A: water + 0.1% formic acid, pH 3; B: acetonitrile + 0.1% formic acid, pH 3; gradient (min/%B) 0/0 1/0 11/100 13/100 14/0 16/0. The following applies: stereoisomer not certain.

As to `O=C(O)CC(CC(=O)O)C(=O)O` [Tricarballylic acid], the LC retention time came to 1.36 min.
For `O=C([O-])c1c[nH]c(=O)[nH]c1=O` [URACIL 5-CARBOXYLATE], the LC retention time came out at 0.87 min.
Regarding `O=c1cc[nH]c(=O)[nH]1` [URACIL], the LC retention time amounted to 0.84 min.
`O=c1[nH]c(=O)c2[nH]c(=O)[nH]c2[nH]1` [URATE]: the LC retention time amounted to 0.81 min.
To `NC(=O)NCCC(=O)O` [UREIDOPROPIONATE] belongs 0.82 min.
To `O=c1ccn(C2OC(COP(=O)(O)O)C(O)C2O)c(=O)[nH]1` (centres undefined) [URIDINE MONOPHOSPHATE] belongs 0.76 min; to `O=c1ccn(C2OC(COP(=O)(O)OP(=O)(O)OP(=O)(O)O)C(O)C2O)c(=O)[nH]1` (centres undefined) [URIDINE TRIPHOSPHATE], 0.6 min; to `O=c1ccn(C2OC(CO)C(O)C2O)c(=O)[nH]1` (centres undefined) [URIDINE], 0.82 min.
Under `O=C(O)C=Cc1cnc[nH]1` [UROCANATE] stands 0.82 min; under `CCOC(N)=O` [Urethane], 2.11 min; under `C=C1CCC(O)CC1=CC=C1CCCC2(C)C1CCC2C(C)C=CC(C)C(C)C` (centres undefined) [VITAMIN D2], 13.9 min.
Take `COc1cc(C(=O)O)ccc1O` [Vanillic acid]: the LC retention time was determined as 4.97 min.
On to `O=c1[nH]c(=O)c2[nH]cnc2[nH]1` [XANTHINE], for which the LC retention time came out at 0.82 min.
Under `O=c1[nH]c(=O)c2ncn(C3OC(COP(=O)(O)O)C(O)C3O)c2[nH]1` (centres undefined) [XANTHOSINE-MONOPHOSPHATE] stands 0.83 min; under `O=C(O)c1cc(=O)c2cccc(O)c2[nH]1` [XANTHURENATE], 4.45 min; under `OC1COC(O)C(O)C1O` (centres undefined) [XYLOSE], 0.64 min.
To `CCC(N)C(=O)O` [alpha-aminobutyric acid (L-2-aminobutyric acid)] belongs 0.69 min; to `COC1=C(OC)C(=O)C(CC=C(C)C)=C(C)C1=O` [coenzyme Q1], 9.21 min; to `COC1=C(OC)C(=O)C(CC=C(C)CCC=C(C)C)=C(C)C1=O` [coenzyme Q2], 11 min.
`O=c1c(-c2ccc(O)cc2)coc2cc(OC3OC(CO)C(O)C(O)C3O)ccc12` (centres undefined) [daidzin]: the LC retention time amounted to 5.24 min.
To `Cc1cc(O)cc2c1OC(C)(CCC(=O)O)CC2` (centres undefined) [delta CEHC] belongs 6.88 min; to `CC(CCC(=O)O)C1CCC2C3CCC4CC(O)CCC4(C)C3CC(O)C12C` (centres undefined) [deoxycholic acid], 9.28 min; to `O=C(O)CCc1ccccc1` [hydrocinnamic acid], 6.87 min.
To `COC(=O)CCCCC(=O)O` [mono-Methyl adipate] belongs 5.42 min; to `COC(=O)CCC(=O)O` [mono-Methyl hydrogen succinate], 3.97 min.
Under `CCCCCCCCCCCCCCCCCCC(=O)O` [nonadecanoic acid] stands 0.68 min; under `O=C(O)CNC(=O)c1ccccc1O` [o-Hydroxyhippuric acid], 5.5 min.
Regarding `CC(=O)OC(CC(=O)[O-])C[N+](C)(C)C` (stereo not drawn) [o-acetyl-l-carnitine hydrochloride], the LC retention time came out at 0.81 min.
Under `CC(=O)C1CCC2C3CC=C4CC(OS(=O)(=O)O)CCC4(C)C3CCC12C` (centres undefined) [pregnenolone sulfate] stands 8.05 min; under `CC(=O)C(=O)O` [pyruvic acid], 0.78 min; under `O=c1c(O)c(-c2ccc(O)c(O)c2)oc2cc(O)cc(O)c12` [quercetine dihydrate], 6.55 min.
Turning to `CCN(CC)CCCC(C)Nc1c2ccc(Cl)cc2nc2ccc(OC)cc12` (centres undefined) [quinacrine], the LC retention time was found to be 5.61 min.
Turning to `Oc1ccc(C=Cc2cc(O)cc(O)c2)cc1` [resveratrol], the LC retention time was determined as 6.28 min.
Under `CC1OC(OCC2OC(Oc3c(-c4ccc(O)c(O)c4)oc4cc(O)cc(O)c4c3=O)C(O)C(O)C2O)C(O)C(O)C1O` (centres undefined) [rutin hydrate] stands 5.42 min.
To `CC(CCC(=O)NCCS(=O)(=O)O)C1CCC2C3C(O)CC4CC(O)CCC4(C)C3CC(O)C12C` (centres undefined) [taurocholic acid  sodium salt hydrate] belongs 7.13 min; to `O=C(O)/C=C/c1cccc(O)c1` [trans-3-Hydroxycinnamic acid (m-Coumaric acid)], 5.82 min; to `O=C(O)/C=C/c1c[nH]c2ccccc12` [trans-3-indoleacrylic acid], 6.57 min.
To `C[N+](C)(C)[O-]` [trimethylamine N-oxide] belongs 0.64 min; to `O=C(O)CCCCCCCCCC(=O)O` [undecanedioic acid], 7.15 min.

Source of the values: the RepoRT retention time repository.
